Patent publication US20240207282A1, “METHOD OF INCREASING CHAPERONE MEDIATED AUTOPHAGY BY STABILIZING THE INTERACTION OF RETINOIC ACID RECEPTOR-ALPHA AND AN INHIBITOR” (ALBERT EINSTEIN COLLEGE OF MEDICINE, priority 2021, published 2024)

Tests used:
NIH3T3 = assay: Macroautophagy activity (LC3-II flux, mCherry-GFP-LC3 reporter); format: cell-based, mouse; settings: 20 μM 16 h (LC3 flux)
Description: Macroautophagy activity: Cells were transduced with a lentiviral vector expressing mCherry-GPF-LC3^32, fixed and flux determined as the conversion of dual fluorescence puncta (autophagosomes) into only red fluorescent puncta (autolysosomes). Flux was also measured by immunoblot for LC3 in cells incubated for 6 h with 20 mM NH4Cl/100 μM leupeptin, by discounting the intensity of LC3 in non-treated cells from that in cells treated with the inhibitors.

CMA network = assay: Comparative transcriptomic analysis / qPCR of CMA network; format: cell-based, mouse; settings: compared to AR7
Description: mRNA-qPCR: RNA was extracted from individual retinas. Total RNA from retinas was extracted using TRIzol Reagent (Invitrogen), and reverse transcription performed using the High-Capacity cDNA Reverse Transcription Kit (Applied Biosystems) according to the manufacturer's instructions. Quantitative real-time PCR was performed in a Light Cycler 480 Instrument (Roche) with Taqman Universal PCR Master Mix using Taqman assays (Life Tech-nologies). The following probes were used: Mm01184405_m1 (rhodopsin), F-5′-CTTAGCTTCTGGGATGC CCC-3′, R-5′-[…]-3′ (lamp2a) F-5′-AA GGACTCCTA TAGTGGG TGACGA-3′, R-5′-[…]-3′ (mouse β-actin).
Microarray: Total RNA of the treated cells was extracted using TRIzol (Invitrogen) and purified with RNeasy chromatography (Qiagen). Cy3-labeled RNA (0.6 μg) from each condition were hybridized to Agilent Mouse 8×60K. Data were processed using the oligo package and normalized using Robust Multiarray Average (RMA) method. Gene set was filtered to remove genes without Entrez or GO annotation (21912 genes out of 55682) and genes with an […]. The full microarray Gomez-Sintes et al. raw data will be deposited in GEO upon acceptance of the manuscript. Pathway analysis was performed using the STRING database ([…]).
CMA index was calculated using data set from Ly (J. Proteome Research (2016) 15: 1350-1359), Gao (2020), and Lane (2020). Briefly, each element of the CMA network was attributed a weight. As LAMP-2A is the rate limiting component of CMA, it was given a weight of 2. Every other element received a weight of 1. Then, every element was attributed direction score that is +1 or −1 based on the known effect of a given element on CMA activity. The score was then calculated as the weighted/directed average of expression counts of every element of the CMA network.

[1] = target: T1, human RARα LBD / NCoR1 peptide (Homo sapiens, UniProt P10276); assay: Fluorescence polarization binding assay, RARα LBD with FITC-NCoR1 peptide; settings: 10 μM compound
T1 construct: human RARα (residues 176-421); His tag; made in house; host or cells: Escherichia coli BL21(DE3)
T1 sequence (P10276 176-421, other chains not shown): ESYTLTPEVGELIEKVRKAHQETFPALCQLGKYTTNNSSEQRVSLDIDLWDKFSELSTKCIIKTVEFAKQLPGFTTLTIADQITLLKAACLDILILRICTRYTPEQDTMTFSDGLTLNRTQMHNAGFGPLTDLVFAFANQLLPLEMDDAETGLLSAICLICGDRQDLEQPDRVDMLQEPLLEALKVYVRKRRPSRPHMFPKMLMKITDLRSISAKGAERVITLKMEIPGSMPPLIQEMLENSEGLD
Description: The histidine-tagged ligand binding domain (LBD) of human RARα (residues 176-421) was expressed in Escherichia colic BL21(DE3). Cells were grown at 37° C. in LB medium supplemented with 50 μg/mL kanamycin until OD600 reached about 0.8. Expression of T7 polymerase was induced by addition of isopropyl-b-d-thiogalactoside (IPTG) to a final concentration of 0.8 mM and cells were incubated at 20° C. overnight. Cell cultures were harvested by centrifugation at 8,000×g for 15 mins. The cell pellet from 1 liter of RARα LBD was resuspended in 50 mL lysis buffer (20 mM Tris-HCl pH 8, 500 mM NaCl, 25 mM imidazole) supplemented with ONE COMPLETE, an EDTA-free protease inhibitor tablet (Roche Applied Science). The suspension was lysed using a high-pressure homogenizer and centrifuged at 35,000×g at 4° C. for 45 minutes. […]
The fluorescein-tagged peptide of NCoR1, FITC-Ahx-RLITLADHICQIITQDFAR (FITC-NCoR1) was provided by Genscript at purity>95%. Fluorescence polarization assays (FPA) were performed using established procedures. […] Fluorescence polarization was measured at 30 min on a F200 PRO microplate reader (TECAN) with the excitation wavelength set at 470 nm and emission measured at 530 nm. EC50 values were calculated by nonlinear regression analysis of competitive binding curves using Graphpad Prism software.

[2] = In vitro solubility by nephelometry; format: physicochemical
Description: (§1) In vitro solubility in the following conditions A) HBSS/HEPES 10 mM/BSA 0.1% pH 6 B) HBSS/HEPES 10 mM/BSA 0.1% pH 7.4 C) TRIS/BSA 0.1% PBS (pH 7.4 and at indicated doses were measured by Nephelometry using the NEPHELOstar Galaxy apparatus (BMG Lab Technologies). In vitro stability in human, mouse and rat liver microsomes and permeability using a bidirectional permeability assay with CaCo-2 cells (pH 6.5/7.4) assays were performed with standard methodology and analyzed by LC-MS/MS. at SIMM-SERVIER joint Biopharmacy Laboratory. In silico ADME properties calculated by QikProp (Schrodinger, LLC) analysis and ADME predictions for CA39 (left) and CA77 (right).

[3] = In vitro stability in liver microsomes; format: in vitro ADME; settings: human liver microsomes
Description: as §1

NIH3T3 cells = settings: previously reported; cited from earlier work

SMILES | effect on macroautophagy (NIH3T3) | predicted CMA activation score (CMA network) | NCoR1 peptide binding to RARα [1] | solubility [2] | metabolic stability [3] | toxicity (NIH3T3 cells)
Clc1ccc2c(c1)OCC(c1ccc(-c3ccccc3)cc1)=N2 [CA39] | did not have the inhibitory effect on macroautophagy | higher | enhanced NCoR1 peptide binding to RARα | reasonable solubility | high to intermediate | without noticeable toxicity
CC(=O)Nc1ccc(C2=Nc3ccc(Cl)cc3OC2)cc1 [CA77] | did not have the inhibitory effect on macroautophagy | higher | enhanced NCoR1 peptide binding to RARα | reasonable solubility | high to intermediate | without noticeable toxicity
